The values below come from US5073557A, “Novel substituted pyrazine, formulations thereof and use in medicine” (Merck Sharp & Dohme Limited, priority 1989, dated 1991).

What all share (type): cell-based
Experiment [1] has as its target T1, M1 muscarinic receptor (ganglion) (Rattus norvegicus, UniProt P08482).
T1 construct: agonist activity against muscarinic receptors in the ganglion, heart and ileum; from tissue
T1 sequence (P08482 1-460): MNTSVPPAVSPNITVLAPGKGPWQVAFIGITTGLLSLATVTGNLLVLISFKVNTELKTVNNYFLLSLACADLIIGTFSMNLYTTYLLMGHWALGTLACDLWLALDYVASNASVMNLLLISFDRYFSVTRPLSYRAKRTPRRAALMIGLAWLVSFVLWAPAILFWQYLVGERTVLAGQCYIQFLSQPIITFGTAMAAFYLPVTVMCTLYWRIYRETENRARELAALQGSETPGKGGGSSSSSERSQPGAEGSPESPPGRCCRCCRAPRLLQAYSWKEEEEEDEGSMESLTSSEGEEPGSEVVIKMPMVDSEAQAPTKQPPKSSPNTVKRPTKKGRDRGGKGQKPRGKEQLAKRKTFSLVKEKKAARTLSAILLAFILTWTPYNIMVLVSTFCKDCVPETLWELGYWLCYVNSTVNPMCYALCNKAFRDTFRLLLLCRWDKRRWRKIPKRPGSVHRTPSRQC
Briefly: Agonist activity against muscarinic receptors in the ganglion (M1 agonist activity). To be noted: for EC50: ganglion. The text has this:
(§1) European Patent Application No. 89200147 (Publication No. 327155) discloses a class of pyrazines, pyridazines or pyrimidines, and salts and prodrugs thereof, substituted on one of the ring carbon atoms thereof with a non-aromatic azacyclic or azabicyclic ring system; and independently substituted on each of the other ring carbon atoms with a substituent of low lipophilicity or a hydrocarbon substituent, which compounds stimulate cholinergic transmission.
(§2) The following results are obtained in pharmacological assays to allow agonist activity against muscarinic receptors in the ganglion, heart and ileum.

In experiment [2] the target is T2, M2 muscarinic receptor (heart) (Cavia porcellus, UniProt H0VRN8).
T2 construct: agonist activity against muscarinic receptors in the ganglion, heart and ileum; from tissue
T2 sequence (H0VRN8 1-466): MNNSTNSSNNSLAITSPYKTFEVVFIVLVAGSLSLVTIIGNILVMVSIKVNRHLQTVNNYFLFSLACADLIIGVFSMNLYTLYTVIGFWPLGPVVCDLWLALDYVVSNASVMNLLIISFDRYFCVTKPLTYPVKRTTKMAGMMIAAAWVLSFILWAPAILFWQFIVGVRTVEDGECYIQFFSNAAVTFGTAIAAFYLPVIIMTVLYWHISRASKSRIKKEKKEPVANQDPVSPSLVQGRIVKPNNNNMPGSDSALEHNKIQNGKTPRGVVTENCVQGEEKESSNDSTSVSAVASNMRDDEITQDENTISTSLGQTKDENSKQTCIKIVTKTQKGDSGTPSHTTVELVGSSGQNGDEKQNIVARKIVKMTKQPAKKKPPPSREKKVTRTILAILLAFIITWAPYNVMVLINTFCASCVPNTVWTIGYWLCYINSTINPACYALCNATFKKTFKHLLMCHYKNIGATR
Put plainly: Pharmacological assay on muscarinic receptors in the heart (M2 antagonist activity). Conditions: read-out: Heart (pA2) (converted).
From the text: as §1, §2

For experiment [3], the target named is T3, M3 muscarinic receptor (ileum) (Cavia porcellus, UniProt H0W1Z3).
T3 construct: agonist activity against muscarinic receptors in the ganglion, heart and ileum; from tissue; host or cells: ileum
T3 sequence (H0W1Z3 1-590): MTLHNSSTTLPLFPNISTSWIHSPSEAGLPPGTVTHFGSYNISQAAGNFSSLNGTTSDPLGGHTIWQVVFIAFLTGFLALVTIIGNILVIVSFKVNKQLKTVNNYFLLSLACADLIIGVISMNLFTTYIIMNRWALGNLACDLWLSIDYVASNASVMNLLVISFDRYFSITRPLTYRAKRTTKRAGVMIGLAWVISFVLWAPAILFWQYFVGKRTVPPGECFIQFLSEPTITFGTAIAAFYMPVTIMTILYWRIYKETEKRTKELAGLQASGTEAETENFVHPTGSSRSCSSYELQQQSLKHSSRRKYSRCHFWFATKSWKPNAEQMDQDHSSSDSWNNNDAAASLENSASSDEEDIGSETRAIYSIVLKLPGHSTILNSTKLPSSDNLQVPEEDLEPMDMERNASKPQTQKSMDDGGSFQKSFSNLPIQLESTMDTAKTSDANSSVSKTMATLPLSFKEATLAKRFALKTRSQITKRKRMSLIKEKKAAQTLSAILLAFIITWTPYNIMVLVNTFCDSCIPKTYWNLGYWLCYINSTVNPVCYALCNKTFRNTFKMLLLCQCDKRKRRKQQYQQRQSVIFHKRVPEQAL
Briefly: Agonist activity against muscarinic receptors in the ileum (M3 agonist activity).
From the text: as §1, §2

On to `Clc1cncc(C2CN3CCC2CC3)n1` (racemic) [racemate, 3-[2-(6-chloropyrazin)yl]-1-azabicyclo[2.2.2]octane], for which the EC50 (commonly the midpoint of the concentration-response curve) in experiment [1] was 100 nM; in experiment [3], 30 nM. Besides, the Kb in experiment [2] is 79.4 nM.

Regarding `Clc1cncc([C@H]2CN3CCC2CC3)n1` [(1), (R)-3-[2-(6-chloropyrazin)yl]-1-azabicyclo[2.2.2]octane], the “potency at the M1 receptor relative to the corresponding (S)-enantiomer” value in experiment [1] (M1 receptor, versus (S)-enantiomer) is listed as “four times”. Besides, in experiment [1] (M1 receptor, versus racemate), the “potency at the M1 receptor relative to the corresponding racemate” value is reported as “twice the potency”. Besides, the concentration giving a half-maximal response (EC50) in experiment [1] is 50 nM; in experiment [3], 40 nM. Further, the Kb in experiment [2] is 63.1 nM.

With `Clc1cncc([C@@H]2CN3CCC2CC3)n1` [(S) isomer], the figures for the EC50 in experiment [1] and in experiment [3] were 200 nM and 600 nM, respectively. The Kb in experiment [2] was 126 nM.
